Source: paper PMC9977294, “A parasitic fungus employs mutated eIF4A to survive on rocaglate-synthesizing Aglaia plants” (eLife, 2023)
“And” between values parts separate entries of the source, which are not always exact repeats. Identical values can stand only once.

Legend:
Test in all cases: Fluorescence polarization assay, FAM-labeled [AG]10 RNA and recombinant eIF4A
Type in all cases: binding
[1] = biological target: Ophiocordyceps sp. BRM1 eIF4A iso4 Gly172His; details: for Fluorescence polarization signal, FAM-labeled [AG]10 RNA, single replicates / Fluorescence polarization signal, FAM-labeled [AG]10 RNA, Mean: ADP + Pi, aglafoline; for Fluorescence polarization signal, FAM-labeled [AG]10 RNA, single replicates: Replicate 1-3; for Fluorescence polarization signal, FAM-labeled [AG]10 RNA, Mean: mean of 3 replicates
Experimental: (§1) The fluorescence polarization assay was performed as previously described ([Chen et al., 2021]). […] After incubation at room temperature for 30 min, the mixture was transferred to a black 384-well microplate (Corning), and the fluorescence polarization was measured by an Infinite F-200 PRO (Tecan). Under ADP + Pi conditions, 1 mM ADP (Fujifilm Wako Chemicals) and 1 mM Na2HPO4 were used as substitutes for AMP-PNP. The data were fitted to the Hill equation to calculate Kd values and visualized by Igor Pro v8.01 (WaveMetrics).

[2] = biological target: Ophiocordyceps sp. BRM1 eIF4A iso4 Gly172Phe; details: for Fluorescence polarization, Replicate 1-3 / fluorescence polarization, Mean: [AG]10 RNA, ADP + Pi, Aglafoline
Experimental: as §1

[3] = biological target: Ophiocordyceps sp. BRM1 eIF4A iso4 WT Gly172; details: for Fluorescence polarization signal, FAM-labeled [AG]10 RNA, single replicates / Fluorescence polarization signal, FAM-labeled [AG]10 RNA, Mean: ADP + Pi, aglafoline; for Fluorescence polarization signal, FAM-labeled [AG]10 RNA, single replicates: Replicate 1-3; for Fluorescence polarization signal, FAM-labeled [AG]10 RNA, Mean: mean of 3 replicates
Experimental: as §1

[4] = [AG]10 10 nM, ADP + Pi (1 mM each), compound 50 µM, read-out: Kd between eIF4A protein and RNA

In the case of `COC(=O)[C@H]1[C@@H](O)[C@@]2(O)c3c(OC)cc(OC)cc3O[C@@]2(c2ccc(OC)cc2)[C@@H]1c1ccccc1` [Aglafoline, methyl rocaglate], the Kd [1, 4] is reported as 1.5 ± 0.14 µM, the “Fluorescence polarization signal, FAM-labeled [AG]10 RNA, single replicates” value ([1]; protein concentration 0.01 μM) is reported as -0.03825 and 0.04372 (2×) and the “Fluorescence polarization signal, FAM-labeled [AG]10 RNA, Mean” value (“Fluorescence polarization signal … Mean” for short) ([1]; protein concentration 0.01 μM) is reported as 0.01639. The “Fluorescence polarization signal, FAM-labeled [AG]10 RNA, single replicates” value ([1]; protein concentration 0.05 μM) was 0.04372 and 0.1011 and 0.0765, the “Fluorescence polarization signal … Mean” value ([1]; protein concentration 0.05 μM) was 0.07377 and the “Fluorescence polarization signal, FAM-labeled [AG]10 RNA, single replicates” value ([1]; protein concentration 0.075 μM) was 0.0847 and 0.06011 and 0.03552. For the same molecule, the “Fluorescence polarization signal … Mean” value ([1]; protein concentration 0.075 μM) was 0.06011, the “Fluorescence polarization signal, FAM-labeled [AG]10 RNA, single replicates” value ([1]; protein concentration 0.1 μM) was 0.0847 and 0.06011 and 0.06831 and the “Fluorescence polarization signal … Mean” value ([1]; protein concentration 0.1 μM) was 0.07104. For the same molecule, the “Fluorescence polarization signal, FAM-labeled [AG]10 RNA, single replicates” value ([1]; protein concentration 0.5 μM) was 0.3388 and 0.429 and 0.3634, the “Fluorescence polarization signal … Mean” value ([1]; protein concentration 0.5 μM) was 0.377 and the “Fluorescence polarization signal, FAM-labeled [AG]10 RNA, single replicates” value ([1]; protein concentration 0.75 μM) was 0.5191 and 0.4372 and 0.429. For the same molecule, the “Fluorescence polarization signal … Mean” value ([1]; protein concentration 0.75 μM) was 0.4617, the “Fluorescence polarization signal, FAM-labeled [AG]10 RNA, single replicates” value ([1]; protein concentration 1 μM) was 0.5765 and 0.7158 and 0.5847 and the “Fluorescence polarization signal … Mean” value ([1]; protein concentration 1 μM) was 0.6257. The “Fluorescence polarization signal, FAM-labeled [AG]10 RNA, single replicates” value ([1]; protein concentration 5 μM) was 1.011 and 0.9208 and 0.888, the “Fluorescence polarization signal … Mean” value ([1]; protein concentration 5 μM) was 0.9399 and the “Fluorescence polarization signal, FAM-labeled [AG]10 RNA, single replicates” value ([1]; protein concentration 7.5 μM) was 1.019 and 0.9372 and 0.9699. For the same molecule, the “Fluorescence polarization signal … Mean” value ([1]; protein concentration 7.5 μM) was 0.9754, the “Fluorescence polarization signal, FAM-labeled [AG]10 RNA, single replicates” value ([1]; protein concentration 10 μM) was 1.126 and 1.06 and 1.027 and the “Fluorescence polarization signal … Mean” value ([1]; protein concentration 10 μM) was 1.071. For the same molecule, the “Fluorescence polarization signal, FAM-labeled [AG]10 RNA, single replicates” value ([1]; protein concentration 25 μM) was 1.208 and 1.167 and 1.15, the “Fluorescence polarization signal … Mean” value ([1]; protein concentration 25 μM) was 1.175 and the “Fluorescence polarization signal, FAM-labeled [AG]10 RNA, single replicates” value ([1]; protein concentration 50 μM) was 1.191 and 1.306 and 1.257. The “Fluorescence polarization signal … Mean” value ([1]; protein concentration 50 μM) was 1.251, the Kd [2, 4] was 0.11 ± 0.021 µM and the “Fluorescence polarization, Replicate 1-3” value ([2]; protein concentration 0.01 μM) was 0.1148 and 0.008197 and 0.04098. For the same molecule, the “fluorescence polarization, Mean” value ([2]; protein concentration 0.01 μM) was 0.05464, the “Fluorescence polarization, Replicate 1-3” value ([2]; protein concentration 0.05 μM) was 0.2869 (2×) and 0.3279 and the “fluorescence polarization, Mean” value ([2]; protein concentration 0.05 μM) was 0.3005. The “Fluorescence polarization, Replicate 1-3” value ([2]; protein concentration 0.075 μM) was 0.3689 and 0.3279 and 0.2869, the “fluorescence polarization, Mean” value ([2]; protein concentration 0.075 μM) was 0.3279 and the “Fluorescence polarization, Replicate 1-3” value ([2]; protein concentration 0.1 μM) was 0.5164 and 0.3115 and 0.2787. The “fluorescence polarization, Mean” value ([2]; protein concentration 0.1 μM) was 0.3689, the “Fluorescence polarization, Replicate 1-3” value ([2]; protein concentration 0.5 μM) was 0.9262 and 0.9426 and 0.8197 and the “fluorescence polarization, Mean” value ([2]; protein concentration 0.5 μM) was 0.8962. The “Fluorescence polarization, Replicate 1-3” value ([2]; protein concentration 0.75 μM) was 0.9508 and 0.8443 and 0.8934, the “fluorescence polarization, Mean” value ([2]; protein concentration 0.75 μM) was 0.8962 and the “Fluorescence polarization, Replicate 1-3” value ([2]; protein concentration 1 μM) was 0.7869 and 0.877 and 0.7623. The “fluorescence polarization, Mean” value ([2]; protein concentration 1 μM) was 0.8087, the “Fluorescence polarization, Replicate 1-3” value ([2]; protein concentration 5 μM) was 0.9016 and 0.9426 and 0.8852 and the “fluorescence polarization, Mean” value ([2]; protein concentration 5 μM) was 0.9098. The “Fluorescence polarization, Replicate 1-3” value ([2]; protein concentration 7.5 μM) was 0.8934 and 1.016 and 0.9344, the “fluorescence polarization, Mean” value ([2]; protein concentration 7.5 μM) was 0.9481 and the “Fluorescence polarization, Replicate 1-3” value ([2]; protein concentration 10 μM) was 1.057 and 0.8934 and 0.877. For the same molecule, the “fluorescence polarization, Mean” value ([2]; protein concentration 10 μM) was 0.9426, the “Fluorescence polarization, Replicate 1-3” value ([2]; protein concentration 25 μM) was 0.8852 and 1.033 and 1.057 and the “fluorescence polarization, Mean” value ([2]; protein concentration 25 μM) was 0.9918. For the same molecule, the Kd [3, 4] was 2.6 ± 0.4 µM, the “Fluorescence polarization signal, FAM-labeled [AG]10 RNA, single replicates” value ([3]; protein concentration 0.01 μM) was 0.02459 and 0.04098 and 0.008197 and the “Fluorescence polarization signal … Mean” value ([3]; protein concentration 0.01 μM) was 0.02459. The “Fluorescence polarization signal, FAM-labeled [AG]10 RNA, single replicates” value ([3]; protein concentration 0.05 μM) was 0.03279 and -0.008197 and -0.07377, the “Fluorescence polarization signal … Mean” value ([3]; protein concentration 0.05 μM) was -0.01639 and the “Fluorescence polarization signal, FAM-labeled [AG]10 RNA, single replicates” value ([3]; protein concentration 0.075 μM) was -0.04918 and -0.03279 and 0.01639. For the same molecule, the “Fluorescence polarization signal … Mean” value ([3]; protein concentration 0.075 μM) was -0.02186, the “Fluorescence polarization signal, FAM-labeled [AG]10 RNA, single replicates” value ([3]; protein concentration 0.1 μM) was -0.02459 and -0.04098 and -0.05738 and the “Fluorescence polarization signal … Mean” value ([3]; protein concentration 0.1 μM) was -0.04098. For the same molecule, the “Fluorescence polarization signal, FAM-labeled [AG]10 RNA, single replicates” value ([3]; protein concentration 0.5 μM) was 0.1557 and -0.1066 and 0.01639, the “Fluorescence polarization signal … Mean” value ([3]; protein concentration 0.5 μM) was 0.02186 and the “Fluorescence polarization signal, FAM-labeled [AG]10 RNA, single replicates” value ([3]; protein concentration 0.75 μM) was 0.1967 and 0.03279 and 0.1721. The “Fluorescence polarization signal … Mean” value ([3]; protein concentration 0.75 μM) was 0.1339, the “Fluorescence polarization signal, FAM-labeled [AG]10 RNA, single replicates” value ([3]; protein concentration 1 μM) was 0.09836 and 0.06557 and 0.1557 and the “Fluorescence polarization signal … Mean” value ([3]; protein concentration 1 μM) was 0.1066. The “Fluorescence polarization signal, FAM-labeled [AG]10 RNA, single replicates” value ([3]; protein concentration 5 μM) was 0.582 and 0.6803 and 0.5902, the “Fluorescence polarization signal … Mean” value ([3]; protein concentration 5 μM) was 0.6175 and the “Fluorescence polarization signal, FAM-labeled [AG]10 RNA, single replicates” value ([3]; protein concentration 7.5 μM) was 0.5902 and 0.6311 and 0.7541. The “Fluorescence polarization signal … Mean” value ([3]; protein concentration 7.5 μM) was 0.6585, the “Fluorescence polarization signal, FAM-labeled [AG]10 RNA, single replicates” value ([3]; protein concentration 10 μM) was 0.6557 and 0.7049 and 0.7131 and the “Fluorescence polarization signal … Mean” value ([3]; protein concentration 10 μM) was 0.6913. For the same molecule, the “Fluorescence polarization signal, FAM-labeled [AG]10 RNA, single replicates” value ([3]; protein concentration 25 μM) was 0.7787 and 0.8279 and 0.877 and the “Fluorescence polarization signal … Mean” value ([3]; protein concentration 25 μM) was 0.8279.
